Assay [1] has as its target T1, WRN [UniPro: Q14191 (WRN_HUMAN), N500-C946] (Homo sapiens (Human), UniProt Q14191). The experiment in a line: WRN ATPase assay (ADP-Glo). Particulars: WRN enzymatic activity assay. It counts as biochemical. For orientation: In ADP-Glo the light output rises with the ADP produced.
The target of assay [2] is T1, WRN [UniPro: Q14191 (WRN_HUMAN), N500-C946]. Kind of assay: WRN unwinding assay (FORKF DNA, fluorescence). In kind it is biochemical. Particulars: Table 14.

Molecules are shown by their SMILES.

T1 sequence (Q14191 500-946): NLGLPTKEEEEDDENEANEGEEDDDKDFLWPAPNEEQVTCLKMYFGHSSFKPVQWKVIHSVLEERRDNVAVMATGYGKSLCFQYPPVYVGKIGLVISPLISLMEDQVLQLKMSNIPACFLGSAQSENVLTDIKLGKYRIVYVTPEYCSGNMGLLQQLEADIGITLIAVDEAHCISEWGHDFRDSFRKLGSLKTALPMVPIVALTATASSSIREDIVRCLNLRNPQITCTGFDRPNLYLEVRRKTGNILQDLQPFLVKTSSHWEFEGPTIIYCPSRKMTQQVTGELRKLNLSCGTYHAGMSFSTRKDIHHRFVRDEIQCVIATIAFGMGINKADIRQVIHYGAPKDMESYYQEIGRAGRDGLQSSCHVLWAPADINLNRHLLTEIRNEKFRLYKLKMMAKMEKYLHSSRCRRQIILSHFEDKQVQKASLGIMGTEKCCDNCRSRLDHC

One may read the IC50 as the concentration needed to halve the response being measured. Regarding `CCc1c(N2CCN(C(=O)c3sc4cnccc4c3O)CC2)c(=O)n2nc(C3=CCOCC3)nc2n1CC(=O)Nc1ccc(C(F)(F)F)cc1Cl` [Example 74, N-(2-Chloro-4-(trifluoromethyl)phenyl)-2-(2-(3,6-dihydro-2H-pyran-4-yl)-5-ethyl-6-(4-(3-hydroxythieno[2,3-c]pyridine-2-carbonyl)piperazin-1-y1)-7-oxo-[1,2,4]triazolo[1,5-a]pyrimidin-4(7H)-yl)acetamide], the 50% inhibitory concentration (IC50) in assay [1] and in assay [2] was under 100 nM each time.

In the case of `CCc1c(N2CCN(C(=O)c3nc4cnccn4c3O)CC2)c(=O)n2nc(C3=CCOCC3)nc2n1CC(=O)Nc1ccc(C(F)(F)F)cc1Cl` [Example 75, N-(2-Chloro-4-(trifluoromethyl)phenyl)-2-(2-(3,6-dihydro-2H-pyran-4-yl)-5-ethyl-6-(4-(3-hydroxyimidazo[1,2-a]pyrazine-2-carbonyl)piperazin-1-yl)-7-oxo-[1,2,4]triazolo[1,5-a]pyrimidin-4(7H)-yl)acetamide], the IC50 in assay [1] is 100 to 1000 nM; in assay [2], under 100 nM.

For `CCc1c(N2CCN(C(=O)c3n[nH]cc(C)c3=O)CC2)c(=O)n2nc(C3=CCOCC3)nc2n1CC(=O)Nc1ccc(C(F)(F)F)cc1Cl` [Example 76, N-(2-Chloro-4-(trifluoromethyl)phenyl)-2-(2-(3,6-dihydro-2H-pyran-4-yl)-5-ethyl-6-(4-(5-methyl-4-oxo-1,4-dihydropyridazine-3-carbonyl)piperazin-1-yl)-7-oxo-[1,2,4]triazolo[1,5-a]pyrimidin-4(7H)-yl)acetamide], the IC50 was 100 to 1000 nM in assay [1] and under 100 nM in assay [2].

For `CCc1c(N2CCN(C(=O)c3cnc4c(ccn4C)c3O)CC2)c(=O)n2nc(C3=CCOCC3)nc2n1CC(=O)Nc1ccc(C(F)(F)F)cc1Cl` [Example 77, N-(2-Chloro-4-(trifluoromethyl)phenyl)-2-(2-(3,6-dihydro-2H-pyran-4-yl)-5-ethyl-6-(4-(4-hydroxy-1-methyl-1H-pyrrolo[2,3-b]pyridine-5-carbonyl)piperazin-1-yl)-7-oxo-[1,2,4]triazolo[1,5-a]pyrimidin-4(7H)-yl)acetamide], the 50% inhibitory concentration (IC50) in assay [1] and in assay [2] was under 100 nM in each case.

With `CCc1c(N2CCN(C(=O)c3cccc(=O)[nH]3)CC2)c(=O)n2nc(C3=CCOCC3)nc2n1CC(=O)Nc1ccc(C(F)(F)F)cc1Cl` [Example 78, N-(2-Chloro-4-(trifluoromethyl)phenyl)-2-(2-(3,6-dihydro-2H-pyran-4-yl)-5-ethyl-7-oxo-6-(4-(6-oxo-1,6-dihydropyridine-2-carbonyl)piperazin-1-yl)-[1,2,4]triazolo[1,5-a]pyrimidin-4(7H)-yl)acetamide], the IC50 in assay [1] and in assay [2] was under 100 nM each time.

As for `CCc1c(N2CCN(C(=O)c3ccnc(=O)[nH]3)CC2)c(=O)n2nc(C3=CCOCC3)nc2n1CC(=O)Nc1ccc(C(F)(F)F)cc1Cl` [Example 79, N-(2-Chloro-4-(trifluoromethyl)phenyl)-2-(2-(3,6-dihydro-2H-pyran-4-yl)-5-ethyl-7-oxo-6-(4-(2-oxo-2,3-dihydropyrimidine-4-carbonyl)piperazin-1-yl)-[1,2,4]triazolo[1,5-a]pyrimidin-4(7H)-yl)acetamide], the values for the IC50 in assay [1] and in assay [2] were 100 to 1000 nM and under 100 nM, respectively.

In the case of `CCc1c(N2CCN(C(=O)c3cc4ccn(C)c4cc3O)CC2)c(=O)n2nc(C3=CCOCC3)nc2n1CC(=O)Nc1ccc(C(F)(F)F)cc1Cl` [Example 80, N-(2-Chloro-4-(trifluoromethyl)phenyl)-2-(2-(3,6-dihydro-2H-pyran-4-yl)-5-ethyl-6-(4-(6-hydroxy-1-methyl-1H-indole-5-carbonyl)piperazin-1-yl)-7-oxo-[1,2,4]triazolo[1,5-a]pyrimidin-4(7H)-yl)acetamide], the results for the IC50 in assay [1] and in assay [2] were 100 to 1000 nM and under 100 nM, respectively.

Consider `CCc1c(N2CCN(C(=O)c3cnc4ncsc4c3O)CC2)c(=O)n2nc(C3=CCOCC3)nc2n1CC(=O)Nc1ccc(C(F)(F)F)cc1Cl` [Example 81, N-(2-Chloro-4-(trifluoromethyl)phenyl)-2-(2-(3,6-dihydro-2H-pyran-4-yl)-5-ethyl-6-(4-(7-hydroxythiazolo[4,5-b]pyridine-6-carbonyl)piperazin-1-yl)-7-oxo-[1,2,4]triazolo[1,5-a]pyrimidin-4(7H)-yl)acetamide], for which the IC50 in assay [1] and in assay [2] was under 100 nM each time.

Regarding `CCc1c(N2CCN(C(=O)c3nnccc3O)CC2)c(=O)n2nc(C3=CCOCC3)nc2n1CC(=O)Nc1ccc(C(F)(F)F)cc1Cl` [Example 82, N-(2-Chloro-4-(trifluoromethyl)phenyl)-2-(2-(3,6-dihydro-2H-pyran-4-yl)-5-ethyl-6-(4-(4-hydroxypyridazine-3-carbonyl)piperazin-1-yl)-7-oxo-[1,2,4]triazolo[1,5-a]pyrimidin-4(7H)-yl)acetamide], the concentration for half-maximal inhibition (IC50) in assay [1] and in assay [2] was under 100 nM throughout.

Take `CCc1c(N2CCN(C(=O)c3nnc(Cl)cc3O)CC2)c(=O)n2nc(C3=CCOCC3)nc2n1CC(=O)Nc1ccc(C(F)(F)F)cc1Cl` [Example 83, N-(2-Chloro-4-(trifluoromethyl)phenyl)-2-(6-(4-(6-chloro-4-hydroxypyridazine-3-carbonyl)piperazin-1-yl)-2-(3,6-dihydro-2H-pyran-4-yl)-5-ethyl-7-oxo-[1,2,4]triazolo[1,5-a]pyrimidin-4(7H)-yl)acetamide]: the IC50 in assay [1] and in assay [2] was under 100 nM each time.

As to `CCc1c(N2CCN(C(=O)c3cnn4cccc4c3O)CC2)c(=O)n2nc(C3=CCOCC3)nc2n1CC(=O)Nc1ccc(C(F)(F)F)cc1Cl` [Example 84, N-(2-Chloro-4-(trifluoromethyl)phenyl)-2-(2-(3,6-dihydro-2H-pyran-4-yl)-5-ethyl-6-(4-(4-hydroxypyrrolo[1,2-b]pyridazine-3-carbonyl)piperazin-1-yl)-7-oxo-[1,2,4]triazolo[1,5-a]pyrimidin-4(7H)-yl)acetamide], the IC50 in assay [1] and in assay [2] was under 100 nM each time.

In the case of `CCc1c(N2CCN(C(=O)c3nn4ccnc4cc3O)CC2)c(=O)n2nc(C3=CCOCC3)nc2n1CC(=O)Nc1ccc(C(F)(F)F)cc1Cl` [Example 85, N-(2-Chloro-4-(trifluoromethyl)phenyl)-2-(2-(3,6-dihydro-2H-pyran-4-yl)-5-ethyl-6-(4-(7-hydroxyimidazo[1,2-b]pyridazine-6-carbonyl)piperazin-1-yl)-7-oxo-[1,2,4]triazolo[1,5-a]pyrimidin-4(7H)-yl)acetamide], the IC50 in assay [1] and in assay [2] was under 100 nM in each case.

In the case of `CCc1c(N2CCN(C(=O)c3sc4ncccc4c3O)CC2)c(=O)n2nc(C3=CCOCC3)nc2n1CC(=O)Nc1ccc(C(F)(F)F)cc1Cl` [Example 87, N-(2-Chloro-4-(trifluoromethyl)phenyl)-2-(2-(3,6-dihydro-2H-pyran-4-yl)-5-ethyl-6-(4-(3-hydroxythieno[2,3-b]pyridine-2-carbonyl)piperazin-1-yl)-7-oxo-[1,2,4]triazolo[1,5-a]pyrimidin-4(7H)-yl)acetamide], the IC50 in assay [1] and in assay [2] was under 100 nM throughout.

Turning to `CCc1c(N2CCN(C(=O)c3cc4c(O)ccnc4o3)CC2)c(=O)n2nc(C3=CCOCC3)nc2n1CC(=O)Nc1ccc(C(F)(F)F)cc1Cl` [Example 88, N-(2-Chloro-4-(trifluoromethyl)phenyl)-2-(2-(3,6-dihydro-2H-pyran-4-yl)-5-ethyl-6-(4-(4-hydroxyfuro[2,3-b]pyridine-2-carbonyl)piperazin-1-yl)-7-oxo-[1,2,4]triazolo[1,5-a]pyrimidin-4(7H)-yl)acetamide], the IC50 in assay [1] and in assay [2] was under 100 nM throughout.

As to `CCc1c(N2CCN(C(=O)C(N)=O)CC2)c(=O)n2nc(C3=CCOCC3)nc2n1CC(=O)Nc1ccc(C(F)(F)F)cc1Cl` [Example 89, 2-(6-(4-(2-Amino-2-oxoacetyl)piperazin-1-yl)-2-(3,6-dihydro-2H-pyran-4-yl)-5-ethyl-7-oxo-[1,2,4]triazolo[1,5-a]pyrimidin-4(7H)-yl)-N-(2-chloro-4-(trifluoromethyl)phenyl)acetamide], the IC50 in assay [1] and in assay [2] was under 100 nM each time.

`CCc1c(N2CCN(C(=O)c3cccc4cn[nH]c34)CC2)c(=O)n2nc(C3=CCOCC3)nc2n1CC(=O)Nc1ccc(C(F)(F)F)cc1Cl` [Example 90, 2-(6-(4-(1H-Indazole-7-carbonyl)piperazin-1-yl)-2-(3,6-dihydro-2H-pyran-4-yl)-5-ethyl-7-oxo-[1,2,4]triazolo[1,5-a]pyrimidin-4(7H)-yl)-N-(2-chloro-4-(trifluoromethyl)phenyl)acetamide]: the IC50 was under 100 nM in assay [1] and 100 to 1000 nM in assay [2].

`CCc1c(N2CCN(C(=O)c3cnc4cc(C)cn4c3O)CC2)c(=O)n2nc(C3=CCOCC3)nc2n1CC(=O)Nc1ccc(C(F)(F)F)cc1Cl` [Example 92, N-(2-Chloro-4-(trifluoromethyl)phenyl)-2-(2-(3,6-dihydro-2H-pyran-4-yl)-5-ethyl-6-(4-(4-hydroxy-7-methylpyrrolo[1,2-a]pyrimidine-3-carbonyl)piperazin-1-yl)-7-oxo-[1,2,4]triazolo[1,5-a]pyrimidin-4(7H)-yl)acetamide]: the IC50 in assay [1] and in assay [2] was under 100 nM throughout.

In the case of `CCc1c(N2CCN(C(=O)CNC(=O)c3ccccc3)CC2)c(=O)n2nc(C3=CCOCC3)nc2n1CC(=O)Nc1ccc(C(F)(F)F)cc1Cl` [Example 93, N-(2-(4-(4-(2-((2-Chloro-4-(trifluoromethyl)phenyl)amino)-2-oxoethyl)-2-(3,6-dihydro-2H-pyran-4-yl)-5-ethyl-7-oxo-4,7-dihydro-[1,2,4]triazolo[1,5-a]pyrimidin-6-yl)piperazin-1-yl)-2-oxoethyl)benzamide], the IC50 in assay [1] and in assay [2] was under 100 nM throughout.

Consider `CCCC(=O)NCC(=O)N1CCN(c2c(CC)n(CC(=O)Nc3ccc(C(F)(F)F)cc3Cl)c3nc(C4=CCOCC4)nn3c2=O)CC1` [Example 94, N-(2-(4-(4-(2-((2-Chloro-4-(trifluoromethyl)phenyl)amino)-2-oxoethyl)-2-(3,6-dihydro-2H-pyran-4-yl)-5-ethyl-7-oxo-4,7-dihydro-[1,2,4]triazolo[1,5-a]pyrimidin-6-yl)piperazin-1-yl)-2-oxoethyl)butyramide], for which the 50% inhibitory concentration (IC50) in assay [1] and in assay [2] was under 100 nM each time.
